Assay results reported in publication PMC5500234 (Chemistry (Weinheim an der Bergstrasse, Germany), 2016).

Biological target: LeuT (bacterial leucine transporter) (Aquifex aeolicus, UniProt O67854)
Assay: scintillation proximity assay
Assay type: binding
Conditions: labelled compound; room temperature, […] days; DDM or MNA-C12/C13/C14

Question: With `CC(C)C[C@H](N)C(=O)O` [[3H]-leucine] as the molecule, how does the “scintillation proximity assay (SPA), radioligand binding” value read?
Answer: Its value is “measuring the ability to bind [^3H]-leucine via scintillation proximity assay (SPA)”.
